The text below walks through data of PMC11940309, “Endocrine-Disrupting Activities of Flavones on Steroid Receptors: Structural Requirements and Synthesis of Novel Flavone with Improved Estrogenic Activity” (Biomedicines, 2025).

In assay [1] the target is T1, progesterone receptor (PR) (Homo sapiens, UniProt P06401).
T1 sequence (P06401 679-933 limits assumed): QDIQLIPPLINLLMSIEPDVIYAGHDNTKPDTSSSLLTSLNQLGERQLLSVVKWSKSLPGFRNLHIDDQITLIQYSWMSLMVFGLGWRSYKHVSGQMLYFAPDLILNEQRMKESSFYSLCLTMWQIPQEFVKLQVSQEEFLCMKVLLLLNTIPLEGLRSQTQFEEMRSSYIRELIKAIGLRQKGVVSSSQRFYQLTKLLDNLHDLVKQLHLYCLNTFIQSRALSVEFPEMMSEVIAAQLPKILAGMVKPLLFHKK
The assay is described as follows: PR-mediated induction of transcription by R5020 in T47D K5pLuc cells (luciferase reporter and endogenous alkaline phosphatase). The format is cell-based. To be noted: T47D, 8 µM, R5020 1.0 nM. The text has this: (§1) The engineered T47D breast cancer cell lines employed for the assessment of flavonoid activity on glucocorticoid receptor (GR) and progesterone receptor (PR) signaling permitted the facile quantitation transcription of both an endogenous gene and a stably integrated reporter gene. […] The T47D K5pLuc cell line responds to progestins via induction of a stably integrated cytokeratin 5-luciferase reporter gene. […] For assessment of the effect of the test compounds on androgen receptor (AR) signaling, we used the HeLa13 cell line engineered to stably express human AR and a PSA-luciferase reporter gene containing a 4× multimerized PSA upstream enhancer ARE1 linked to the E4 TATA box and luciferase gene.
Experiments testing the effect of flavonoids on progesterone receptor-mediated transcription employed T47D K5pluc cells. The protocol was the same as that for T47D (A1-2) cells except the medium was Dulbecco’s Modified Eagle’s Medium supplemented with 10% FBS, insulin (10 nM), puromycin 200 ng/mL, nonessential amino acids, penicillin (100 U/mL), and streptomycin (100 μg/mL). When treated with hormone, the synthetic progestin, R5020, was used at 1.0 nM. Hormone treatment was for 20 h at which time cells were harvested for assay of alkaline phosphatase and luciferase.
(§2) For all cell lines, cell harvesting and the luminescence assay for alkaline phosphatase and/or luciferase were performed as previously described in detail. Each condition was performed in quadruplicate. […] Percent inhibition is 100 minus the percent induction.

Assay [2] deals with T2, human AR (Homo sapiens, UniProt P10275).
T2 construct: expressed in transfected cells; host or cells: HeLa13 (HeLa 13)
T2 sequence (P10275 1-920): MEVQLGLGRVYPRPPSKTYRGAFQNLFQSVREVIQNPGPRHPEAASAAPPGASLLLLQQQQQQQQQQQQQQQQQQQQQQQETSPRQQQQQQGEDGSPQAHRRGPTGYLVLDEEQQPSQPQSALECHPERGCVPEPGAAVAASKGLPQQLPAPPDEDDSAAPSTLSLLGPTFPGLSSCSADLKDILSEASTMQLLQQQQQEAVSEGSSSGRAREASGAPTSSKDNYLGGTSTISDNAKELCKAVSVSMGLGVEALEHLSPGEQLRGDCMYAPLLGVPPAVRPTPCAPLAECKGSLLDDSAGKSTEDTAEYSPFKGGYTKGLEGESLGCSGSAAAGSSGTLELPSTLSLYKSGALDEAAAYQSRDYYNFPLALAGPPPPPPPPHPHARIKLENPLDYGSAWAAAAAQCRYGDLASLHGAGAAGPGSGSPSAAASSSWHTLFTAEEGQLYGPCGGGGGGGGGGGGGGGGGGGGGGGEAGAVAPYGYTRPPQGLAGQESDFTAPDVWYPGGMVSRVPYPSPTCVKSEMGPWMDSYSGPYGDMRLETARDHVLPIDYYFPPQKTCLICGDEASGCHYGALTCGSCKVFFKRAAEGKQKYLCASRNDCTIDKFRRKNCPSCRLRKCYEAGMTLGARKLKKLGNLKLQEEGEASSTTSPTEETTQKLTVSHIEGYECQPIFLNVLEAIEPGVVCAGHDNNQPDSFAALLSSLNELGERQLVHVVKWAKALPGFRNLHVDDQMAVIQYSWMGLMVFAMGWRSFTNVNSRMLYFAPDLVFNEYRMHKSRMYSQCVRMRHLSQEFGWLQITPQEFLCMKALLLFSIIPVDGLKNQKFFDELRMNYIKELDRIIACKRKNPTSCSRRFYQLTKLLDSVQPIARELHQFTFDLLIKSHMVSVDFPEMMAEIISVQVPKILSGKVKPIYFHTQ
In words: AR-mediated induction of PSA-luciferase reporter by R1881 in HeLa13 cells. To be noted: R1881 1.0 nM, read-out: % Inhibition of AR-Mediated Gene Induction. Type of assay: cell-based.
From the text: as §1
Experiments testing the effect of flavonoid on androgen receptor-mediated transcription employed HeLa 13 cells maintained in MEM medium supplemented with 10% FBS, 0.5 mg/mL G418, 0.05 mg/mL Hygromycin B, […], and streptomycin (100 μg/mL). For reporter gene experiments, cells were replated at a 1:5 dilution in MEM medium with 5% charcoal-stripped FBS and the antibiotics mentioned above. The medium was changed the next day. After 48 h, the cells were washed with PBSE, detached with phenol red-free trypsin, pelleted, resuspended and plated in 96 well plates as above. Hormone and flavonoid treatments were performed as described above with the HeLa 13 medium and charcoal-stripped FBS. When treated with hormone, the synthetic androgen, R1881, was used at 1.0 nM. Hormone treatment was for 20 h at which time cells were harvested for assay of luciferase.
as §2

Assay [3] concerns estrogen receptor (ER). In words: ER-mediated luciferase reporter induction in T47D KBluc cells. Type of assay: cell-based, human. To be noted: for % ER Induction: relative to 1nM estradiol. The method, then:
Experiments testing the effect of flavonoids on estrogen receptor-mediated transcription employed T47D KBluc cells. These cells were maintained in RPMI medium with 10% FBS, penicillin (100 U/mL), and streptomycin (100 μg/mL). For reporter gene experiments, cells were detached as above and replated at 50% confluency in phenol red-free RPMI media with 10% charcoal-stripped FBS and antibiotics (day one). All subsequent steps used phenol red-free medium and trypsin. On day three, the medium was replaced with fresh medium. On day five, cells were washed with PBSE, detached, resuspended, diluted, and replated in the phenol red-free RPMI with charcoal-stripped serum (50,000 cells per well as above).
as §2

The subject of assay [4] is estrogen receptor (ER). Also on record: method as in PMID 11925457. To be noted: previous report; cited from earlier work.

`Oc1ccc(C2COc3cc(O)ccc3C2)cc1` (stereo not drawn) [7,4′-dihydroxyisoflavan]: the inhibition at 8 µM in assay [1] (AP (alkaline phosphatase)) was 42%; in assay [1] (LUC (luciferase)) it was -88%. In addition, in assay [2], the inhibition at 4 µM stood at 22%. Further, the “% ER Induction” value in assay [3] (1 µM) worked out at 96%; in assay [3] (4 µM), 84%.
In the case of `O=c1c(O)c(-c2ccc(O)cc2)oc2ccc(O)cc12` [3,6,4′-trihydroxyflavone], in assay [2], the inhibition at 1 µM came to 53% and the inhibition at 4 µM was 71%. The “% ER Induction” value in assay [3] (1 µM) is listed as 102%. In addition, the “% ER Induction” value in assay [3] (4 µM) was 108%. Also, the “EC50 lower than that of 6,4′-dihydroxyflavone” value in assay [3] (comparison at lower concentrations) is on record as 2–3 fold. For the same molecule, the “affinity for ER greater than that of 6,4′-dihydroxyflavone” value in assay [4] is 3 fold.
Consider `O=c1c(O)c(-c2ccccc2)oc2ccc(O)cc12` [3,6-dihydroxyflavone], for which, in assay [2], the inhibition at 1 µM came out at 35% and the inhibition at 4 µM was found to be 52%. Besides, the “% ER Induction” value in assay [3] (1 µM) came out at 55%. In addition, in assay [3] (4 µM), the “% ER Induction” value came out at 94%.
For `COc1ccc(-c2cc(=O)c3cc(O)ccc3o2)cc1` [6-hydroxy,4′-methoxyflavone], in assay [2], the inhibition at 1 µM turned out to be 32% and the inhibition at 4 µM was 39%. In addition, the “% ER Induction” value in assay [3] (1 µM) is 63%. For the same molecule, the “% ER Induction” value in assay [3] (4 µM) worked out at 131%.
The like results for `O=c1c(O)c(-c2ccc(O)cc2)oc2ccccc12` [3,4′-dihydroxyflavone] were, in that order, 3%, 27%, 13% and 125%.
On to `COc1ccc(-c2oc3ccc(OC)cc3c(=O)c2O)cc1` [3-hydroxy, 6,4′-dimethoxyflavone], for which, in assay [2], the inhibition at 1 µM is -17% and the inhibition at 4 µM amounted to 41%. Moreover, in assay [3] (1 µM), the “% ER Induction” value is 2%. In addition, the “% ER Induction” value in assay [3] (4 µM) turned out to be 3%.
